One assay has as its system α-synuclein. In words: Excitation and emission spectra with α-synuclein isoforms. The following applies: 6 days of incubation. The class given is binding.
Assay [1] has as its target T1, Aβ40 fibrils (Homo sapiens, UniProt P05067).
T1 construct: mixed with Aβ40 fibrils (5 μM) incubated in Tris pH 8.0 (A) or PB pH 7.4 (B)
In words: Fluorescence sensing of Aβ40 fibrils over monomers (ADF, LOD). The class given is binding. The conditions noted are these: 5 to 1 protein to sensor molar ratio. How it is done:
Quantitative assessment of OPE sensor performance towards A1340 fibrils at a 5 to 1 protein to sensor molar ratio was analyzed by calculating an amyloid detector factor using the equation shown in FIG. 13, where F(dye-in-buffer), F(dye+fibrils) and F(dye+monomers) are the integrated emission intensities for sensor alone, sensor in the presence of fibrils, and sensor in the presence of monomers, respectively. Using this equation, positive ADF values indicate selective sensing of fibrils over monomers, while negative ADF values indicate selective sensing of monomers. ADF values close to zero indicate no selective sensing.

Assay [2] concerns the target T1, Aβ40 fibrils. The assay is described as above. The class given is binding.
A further assay deals with T2, Aβ42 peptide (Homo sapiens, UniProt P05067).
T2 construct: in the presence of unincubated (oligomeric) and incubated (fibrillar) Aβ42 peptide (5 μM)
Briefly: Fluorescence spectra with unincubated (oligomeric) and incubated (fibrillar) Aβ42 peptide. The class given is binding. The following applies: ThT 20 μM, OPE 1 μM, Aβ42 5 μM.

Another assay has as its target Aβ40 monomers (Homo sapiens, UniProt P05067). In words: Photo-oxidation of Aβ40 monomers (DNPH dot blot, RP-HPLC, MS, amino acid analysis). The class given is biochemical. The following applies: 4 hour irradiation. How it is done: To evaluate the potency of OPE to selectively photo-oxidize Aβ40 fibrils over the monomeric counterpart, the oxidation state of both Aβ40 fibrils and monomers were characterized and were compared to MB. The carbonyl content of the protein was monitored by DNPH dot blot, which increases as a result of histidine photooxidation.^20
DNPH dot blot was carried out on Aβ40 fibrils and monomers incubated in the dark or under irradiation between 0 to 6 hours (FIGS. 9A and 9B). […] Slightly higher carbonyl content in Aβ fibrils at time 0 h in the presence of MB could be due to short light exposure during sample preparation causing MB to photosensitize the oxidation of Aβ fibrils.
To confirm this observation, Aβ40 monomers were analyzed by reverse phase HPLC (RP-HPLC), mass spectrometry (MS), and amino acid analysis (FIGS. 10A and B), before and after irradiation in the presence of OPE1− and MB.

Assay [3] has as its target T1, Aβ40 fibrils. Briefly: Effect of oxidation on Aβ40 fibril morphology and secondary structure (TEM, CD). Type of assay: biochemical. The following applies: irradiated with photosensitizer.
[4] abbreviates: Aβ40 fibrils produced in pH 7.4 PB.
Where [5] appears, read: Aβ40 fibrils produced in pH 8.0 Tris.

Experimental findings from US11759520B1, “Theranostics for protein misfolding diseases” (UNM Rainforest Innovations, priority 2018, dated 2023) are described below.

Molecules are shown by their SMILES.

T1 sequence (P05067 672-711 limits assumed): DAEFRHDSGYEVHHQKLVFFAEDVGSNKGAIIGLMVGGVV
T2 sequence (P05067 672-713 limits assumed): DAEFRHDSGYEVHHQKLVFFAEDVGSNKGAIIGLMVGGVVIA
Sequence of Aβ40 monomers (P05067 672-711 limits assumed): as the sequence (P05067 672-711 limits assumed) above

For `Cc1ccc2c(c1)sc(-c1ccc(N(C)C)cc1)[n+]2C.[Cl-]` [ThT, thioflavin T, reference compound], the “detection of prefibrillar α-synuclein aggregates” value in the assay with α-synuclein is “only able to detect A53T aggregates after 6 days of incubation”. In addition, the “ADF (Amyloid Detection Factor), Aβ40 in PB” value on Aβ40 fibrils [1] (setting [4]) is 0.23 +/− 0.03. Further, the “ADF (Amyloid Detection Factor), Aβ40 in Tris” value at Aβ40 fibrils [1] (setting [5]) is 0.53 +/− 0.1. Further, the “LOD (Limit of Detection), Aβ40 in PB” value on Aβ40 fibrils [2] (setting [4]) turned out to be 0.69 ± 0.05 µM. Besides, on Aβ40 fibrils [2] (setting [5]), the “LOD (Limit of Detection), Aβ40 in Tris” value worked out at 0.65 ± 0.05 µM. At Aβ42 peptide, the “fluorescence increase with fibrillar (incubated) Aβ42” value is “large fluorescence increases” and the “fluorescence increase with oligomeric (unincubated, prefibrillar) Aβ42” value is “small fluorescence increases”.
Turning to `CN(C)c1ccc2nc3ccc(=[N+](C)C)cc-3sc2c1` [MB, methylene blue, reference compound], the “changes of Aβ40 monomers after irradiation” value at Aβ40 monomers is “become more hydrophilic, present higher m/z ratio, and have a lower histidine content”. For the same compound, the “Aβ40 fibril morphology after irradiation (TEM)” value on Aβ40 fibrils [3] is “fibrils dissociated and broke into shorter structures”.
